Assay results taken from publication PMC2652713, “Molecular Blocking of CD23 Supports Its Role in the Pathogenesis of Arthritis” (PLoS ONE, 2009).

Tests used:
[1] = test system: peritoneal macrophages of AIA rats; experiment: Ex vivo cytokine release from peritoneal macrophages of treated AIA rats, ELISA; type: in vivo, rat, Female Lewis; conditions: cells collected 50 days post-immunization, 48 h culture, 4 rats
Experimental: AIA rats were treated either after (AIA+p30A) or before (p30A+AIA) the onset of symptoms. Treatment consisted of p30A (10 mg/rat) or hydrocortisone (HC, 30 mg/rat). Rat peritoneal macrophages were collected following 50 days post-immunization, washed and re-incubated in culture medium alone. Cell supernatants were collected 48 h later and cytokine levels were quantified. Macrophages from healthy rats were also incubated in similar conditions. Values are mean±s.d. of cells from 4 different rats.
Adjuvant arthritis was induced in six week-old animals by subcutaneous injection at the base of the tail of 300 µl containing 1.8 mg of inactivated Mycobacterium butyricum (Difco Laboratories, Detroit, MI) diluted in emulsion of 8 ml Vaseline, 1 ml polysorbate 80, and 1 ml PBS (Phosphate Buffer Saline, Eurobio). Rats were boosted one week later following the same procedure. Observation was conducted for up to 50 days following immunization for clinical signs of arthritis. Rats were divided in different groups of 8 rats. Groups were treated with five injections (every 2 days) of either p30A (10, 50 or 100 mg in a PBS solution), pCtl, hydrocortisone (Sigma Aldrich) or PBS solution. Injections were initiated two days after the appearance of first arthritic symptoms (therapeutic) or on the first day of immunization (preventive). […] Rats were sacrificed 50 days after AIA induction. Peritoneal macrophages were collected and incubated in culture medium alone for 48 h. Quantification of TNF-α and IL-1β in rat cell supernatants was performed using appropriate ELISA kits and according to manufacturer's recommendations (Biosource, Montrouge, France).

[2] = test system: healthy human PBL-derived macrophages; experiment: Inflammatory mediator release from healthy human PBL-derived macrophages; type: cell-based
Experimental: Figure 4 Inhibition of inflammatory mediator generation from healthy human PBL-derived macrophages by p30A. Decreased levels of TNF-α (A), IL-6 (B), IL-1β, IL-8 and IL-10 (C) were detected in CD23-activated cells after incubation with p30A. […] Values are mean±s.d. of cells from 5 (IL-6, TNF-α) or 2 (IL-1β, IL-8, IL-10) different donors.
Monocytes or macrophages were activated through CD23 pathway: while monocytes/macrophages from RA patients express CD23, monocytes from healthy donors must be pre-activated to express surface CD23 as described. This pre-activation was obtained by incubation of healthy monocytes with recombinant human IL-4 (20 ng/ml) during 48 h at 37°C; After washing, all cell populations were tested by flow cytometry for their surface CD23 expression (>80% CD23^+) and then incubated in the presence of cross-linking CD23-MAb (clones 135 or DM2, IgG1k, 20 µg/ml) during 48–72 h, or IgE and anti-IgE as described, [17]. When indicated, peptides were added to the cells 2 h prior to their activation. Cells supernatants were then analyzed for their nitric oxide content (see below) and for the presence of cytokines: levels of TNF-α and IL-6 were determined in duplicates for each sample by a specific ELISA (R&D, Paris, France) while levels of IL-1β, IL-8 and IL-10 was determined using FlowCytomix Human Th1/Th2 Kit as recommended (Bender Medsystems, Vienna, Austria).

[3] = test system: rat peritoneal macrophages; experiment: NO generation by IgE/DNP-activated rat peritoneal macrophages; type: cell-based
Experimental: Figure 6 Inhibition of in vitro and in vivo inflammatory responses in rats by p30A peptide. (A) Rat peritoneal macrophages were activated via CD23 antigens with/without p30A, L-NIL or pCtl. Cell supernatants were collected 48 h later and nitrite levels were quantified. Values are mean±s.d. of cells from 3 different rats. (B) Cumulative clinical score/rat obtained following 50 days post-immunization in all groups. AIA rats were treated either after or before (d0) the onset of symptoms. Treatment consisted of p30A, hydrocortisone (HC, 30 mg/rat)) or pCtl (100 mg/rat). Shown are means of cumulative score/rat±s.d. from 5 (HC) or 8 rats (other conditions). (C) Evolution of arthritis severity scores of adjuvant-induced arthritis (AIA) in rats treated with intracutaneous p30A or pCtl (100 mg/rat) or hydrocortisone (after the onset of clinical signs as illustrated by arrows (means from 8 rats, s.e.m.<20%). (D) Histopathologic analysis confirm p30A ability to decrease all components of AIA lesions: pannus formation and inflammation of the synovium (P), deformity of joint and bones (asterix), bone remodeling and destruction (arrowhead), bone neoformation (arrows) and cartilage destruction.
Culture supernatants (72 h) were assayed for the stable end-product of NO, NO2 ^− using the Griess reaction modified as detailed elsewhere. […]

[4] = test system: CD23; experiment: CD23 western blot on CD23+ B-cell line extract; type: binding, human; conditions: CD23+ B cell line extract (50 µg protein), blot pre-incubated with p30A 10 µg/ml (methods: 10, 20 and 40 µg/ml, 2 h)
Experimental: Figure 1 Specific blockade of CD23 reactivity by p30A. Flow cytometry analysis showing the inhibition of (A) anti-CD23-FITC (20 µg/ml) or (B) IgE (10 µg/ml)/anti-IgE-FITC (1 µg/ml) binding to CD23^+ human PBL-derived macrophages (red lines) or following their pre-incubation with p30A peptides (10 µg/ml) (blue lines). (C) CD23 western blot was performed on total protein extract from à CD23^+ B-cell line. The detection with CD23-McAb followed the pre-incubation of the blot with or without p30A (10 µg/ml). Similar protein quantity (50 µg) was used for each western blot condition.
Total cellular proteins were isolated from CD23^+, ADAM B-cell line in cell lysis buffer (10 mM Tris pH 8.0, 150 mM NaCl, 5 mM EDTA, 1% Triton X-100, 0.05% SDS, 10 mM Sodium Fluoride, 1 mM Sodium Orthovanadate, 5 µM Molibdic Acid) and a mixture of protease inhibitors (all from Sigma Aldrich, Saint Quentin Fallavier, France). Protein concentration was determined using the Bradford assay (Bio Rad, Hemel Hempstead, UK). Protein samples (50 µg total protein) were subjected to SDS-PAGE using a 12% resolving gel. […] Immunoreactive bands (CD23 and Bcl2) were detected using the FluorChem 8800 (Alpha Innotech, San Leandro, USA) and semi-quantified by densitometry using AlphaEase FC (Alpha Innotech).

[5] = test system: CD23
[6] = test system: human CD23+ macrophages; experiment: Cell mortality and apoptosis with p30A versus medium alone; type: cell-based
[7] = treatment before onset of symptoms (p30A+AIA, 10 mg/rat)
[8] = FlowCytomix, mean±s.d., 2 donors

FHENWPS [p30A]
TNFα release ex vivo, therapeutic ([1]; treatment after onset of symptoms (AIA+p30A, 10 mg/rat)): dramatically reduced both IL-1β and TNFα levels | IL-1β release ex vivo, therapeutic ([1]; treatment after onset of symptoms (AIA+p30A, 10 mg/rat; HC 30 mg/rat)): dramatically reduced both IL-1β and TNFα levels | IL-1β release ex vivo, preventive [1, 7]: dramatically reduced both IL-1β and TNFα levels | TNFα release ex vivo, preventive [1, 7]: dramatically reduced both IL-1β and TNFα levels | IL-6 level ([2]; ELISA, mean±s.d., 5 donors): Decreased | TNF-α level ([2]; ELISA, mean±s.d., 5 donors): Decreased | IL-1β level [2, 8]: Decreased | IL-8 level [2, 8]: Decreased | IL-10 level [2, 8]: Decreased | inhibition of CD23-mediated inflammatory mediators at protein level ([2]; TNF-α, IL-6, IL-1β, IL-8 and IL-10 in supernatants): significantly inhibited all CD23-mediated activation of inflammatory mediators at protein levels | reversal of IgE/DNP activation ([3]; rat macrophages ex-vivo): able to reverse the IgE/DNP activation of rat macrophages ex-vivo | CD23-mediated induction of NO generation ([3]; rat peritoneal macrophages, IgE/DNP, peptide 1 h prior, supernatants at 48 h, 3 rats): significant decrease in CD23-mediated induction of NO generation | block of detection of CD23 protein by CD23-McAb [4]: block | side agonistic effect [5]: absence of side agonistic effect | cell mortality and apoptosis ([6]; in the presence of p30A compared to cells in medium alone, no significant variations): < 5% | cell toxicity ([6]; monocytes/macrophages): without cell toxicity
